Data from patent publication US20150005311A1, “IP receptor agonist heterocyclic compounds” (NOVARTIS AG, priority 2012, published 2015).

What follows are compounds tested against T1, IP receptor (Homo sapiens, UniProt P43119) (assay: cAMP accumulation in CHO cells stably expressing the IP receptor (CHO-IP), PerkinElmer AlphaScreen assay). Conditions: 1 hour at room temperature, 4-parameter logistic fit.
T1 construct: expressed in transfected cells; host or cells: CHO cells stably expressing the IP receptor (CHO-IP)
T1 sequence (P43119 whole entry): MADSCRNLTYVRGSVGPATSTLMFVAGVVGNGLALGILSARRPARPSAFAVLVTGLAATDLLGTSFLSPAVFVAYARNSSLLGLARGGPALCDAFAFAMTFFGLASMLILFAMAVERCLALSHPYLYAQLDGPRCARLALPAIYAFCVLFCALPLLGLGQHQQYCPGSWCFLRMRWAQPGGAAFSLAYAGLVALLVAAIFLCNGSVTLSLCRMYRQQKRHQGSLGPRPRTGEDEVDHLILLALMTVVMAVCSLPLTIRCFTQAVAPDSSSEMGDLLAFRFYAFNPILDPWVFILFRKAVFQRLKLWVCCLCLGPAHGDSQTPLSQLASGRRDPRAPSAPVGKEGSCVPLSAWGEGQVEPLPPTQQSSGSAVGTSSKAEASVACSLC
Type: cell-based
Method: Activity of compounds at the IP receptor (IP receptor) is assessed by measuring cAMP accumulation in CHO cells stably expressing the IP receptor (CHO-IP) using the PerkinElmer AlphaScreen assay. This technology measures the endogenous production of cAMP, in a non-radioactive luminescence proximity homogenous assay. A biological reaction occurs between streptavidin coated donor beads, biotinylated cAMP and anti-cAMP acceptor beads, bringing the donor and acceptor beads close enough together so that upon excitation a fluorescence signal is produced. On production of endogenous cAMP, competition between the biotinylated cAMP and cellular-derived cAMP causes a reduction in the fluorescent signal. The reduction in signal is proportional to the amount of cAMP being produced, thus it is possible to quantify the amount of cAMP being produced on stimulation with agonist.
Test and reference compounds are prepared at 100×[final] in 100% DMSO, and diluted 1:3 using a Biomek Fx (Beckman Coulter). This is followed by an intermediate dilution to give 5×[final] in assay buffer (HBSS containing 5 mM HEPES, 0.1% (w/v) BSA). 5 μL of 5×[final] test compounds, reference compounds and buffer/DMSO control are then transferred to a 384-well white OptiPlate, containing 20 μL CHO-IP cell suspension (15,000 cells/well, prepared from frozen), and plate is incubated at room temperature for 1 hour. A cAMP standard curve is constructed for each experiment (concentration range of 10000 nM to 0.001 nM, in assay buffer) and 25 μL of each concentration added to the last two columns of the assay plate. The incubation is terminated by the addition of lysis buffer (dH2O; 0.3% (v v^−1) Tween-20) containing 20 units mL^−1 streptavidin coated donor beads and biotinylated cAMP (pre-incubated for 30 minutes) and 20 units mL^−1 anti-cAMP acceptor beads, which are added to the lysis buffer just before addition to the assay plate. The assay plate is then incubated at room temperature in the dark, for 60 minutes with gentle shaking, and read on the Envision plate reader (Perkin Elmer).
The raw data of the reference compounds, test compounds and controls are converted into cAMP concentrations, using the cAMP standard curve, in GraphPadPrism (GraphPad Software Inc). EC50 as well as maximal values of the agonist curves are determined using a 4-parameter logistic equation. The % maximum response values of all test compounds are determined using the top of the treprostinil concentration-response curve.

Row | SMILES | EC50 [nM]
1 | Cc1ccc(-c2nc3c(nc2-c2ccc(C)cc2)N(CCCCCc2nnn[nH]2)CC(O)C3)cc1 (racemic) [Example 4, rac-5-(5-(1H-Tetrazol-5-yl)pentyl)-2,3-di-p-tolyl-5,6,7,8-tetrahydropyrido[3,2-b]pyrazin-7-ol] | 5.63
2 | Cc1ccc(-c2nc3c(nc2-c2ccc(C)cc2)N(CCCCCc2nnn[nH]2)CCC3)cc1 [Example 2, 5-(5-(1H-tetrazol-5-yl)pentyl)-2,3-di-p-tolyl-5,6,7,8-tetrahydropyrido[2,3-b]pyrazine] | 0.07
3 | Cc1ccc(-c2nc3c(nc2-c2ccc(C)cc2)N(CCCCCCc2nnn[nH]2)CCC3)cc1 [Example 1, 5-(6-(1H-Tetrazol-5-yl)hexyl)-2,3-di-p-tolyl-5,6,7,8-tetrahydropyrido[2,3-b]pyrazine] | 0.11
4 | Cc1ccc(-c2nc3c(nc2-c2ccc(C)cc2)N(CCCCCCc2nnn[nH]2)CC(O)C3)cc1 (racemic) [Example 3, rac-5-(6-(1H-Tetrazol-5-yl)hexyl)-2,3-di-p-tolyl-5,6,7,8-tetrahydropyrido[2,3-b]pyrazin-7-ol] | 0.04
5 | Cc1ccc(-c2nc3c(nc2-c2ccc(C)cc2)N(CCCCCCc2nnn[nH]2)CC(O)C3)cc1 (single isomer, unassigned) [Example 3a, (R)- or (S)-5-(6-(1H-tetrazol-5-yl)hexyl)-2,3-di-p-tolyl-5,6,7,8-tetrahydropyrido[2,3-b]pyrazin-7-ol]] | 2.06
6 | Cc1ccc(-c2nc3c(nc2-c2ccc(C)cc2)N(CCCCCCc2nnn[nH]2)CC(O)C3)cc1 (single isomer, unassigned) [Example 3b, (R)- or (S)-5-(6-(1H-tetrazol-5-yl)hexyl)-2,3-di-p-tolyl-5,6,7,8-tetrahydropyrido[2,3-b]pyrazin-7-ol]] | 1.71

Other lines, results leading:

Row | EC50 [nM] | SMILES
7 | 0.86 | Cc1ccc(-c2nc3c(nc2-c2ccc(C)cc2)N(CCCCCc2nnn[nH]2)CC(O)C3)cc1 (single isomer, unassigned) [Example 4b, (R)- or (S)-5-(5-(1H-Tetrazol-5-yl)pentyl)-2,3-di-p-tolyl-5,6,7,8-tetrahydropyrido[2,3-b]pyrazin-7-ol]]
8 | 0.62 | Cc1ccc(-c2nc3c(nc2-c2ccc(C)cc2)N(CCCCCc2nnn[nH]2)CC(O)C3)cc1 (single isomer, unassigned) [Example 4a, (R)- or (S)-5-(5-(1H-Tetrazol-5-yl)pentyl)-2,3-di-p-tolyl-5,6,7,8-tetrahydropyrido[2,3-b]pyrazin-7-ol]]
